Data published in article PMC3914891, “Pentacyclic Nitrofurans with In Vivo Efficacy and Activity against Nonreplicating Mycobacterium tuberculosis” (PLoS ONE, 2014).
In brackets after ≈: the same amount, converted by molar mass.

Legend:
[1] = system: M. abscessus (ATCC 19977); assay: MIC, non-tuberculosis mycobacteria: M. abscessus; type: cell-based; details: Mycobacteroides abscessus, ATCC19977, 72 h, read-out: Minimum Inhibitory Concentration, M. abscessus
M. fortuitum (ATCC 6841) = assay: MIC, non-tuberculosis mycobacteria: M. fortuitum; type: cell-based; details: Mycolicibacterium fortuitum, ATCC6841, 72 h; broth dilution, visual inspection, 3 days; read-out: Minimum Inhibitory Concentration, M. fortuitum
M. kansasii (ATCC 12478) = assay: MIC, non-tuberculosis mycobacteria: M. kansasii; type: cell-based; details: Mycobacterium kansasii, ATCC12478, 168 h; broth dilution, visual inspection, 7 days; read-out: Minimum Inhibitory Concentration, M. kansasii
M. avium (ATCC 25291) = assay: MIC, non-tuberculosis mycobacteria: M. avium; type: cell-based; details: Mycobacterium avium, ATCC25291, 168 h; broth dilution, visual inspection, 7 days; read-out: Minimum Inhibitory Concentration, M. avium
[2] = system: Burkholderia cepacia (ATCC 25416); assay: MIC, spectrum of activity: B.c.; type: cell-based; details: ATCC25416, read-out: Minimum Inhibitory Concentration, B.c.
[3] = system: Enterococcus faecalis (ATCC 33186); assay: MIC, spectrum of activity: E.f.; type: cell-based; details: ATCC33186, read-out: Minimum Inhibitory Concentration, E.f.
M. tuberculosis = assay: MIC determination, microbroth dilution, M. tuberculosis; type: cell-based, Mycobacterium tuberculosis; details: Mycobacterium tuberculosis, 168 h; read-out: M. tb. MIC
[4] = system: Staphylococcus aureus (NRS70); assay: MIC, spectrum of activity: MRSA; type: cell-based; details: read-out: Minimum Inhibitory Concentration, MRSA
[5] = system: Bacillus anthracis sterne 34F2; assay: microbe, parasite or virus in culture; type: cell-based; details: STERNE34F2, read-out: Minimum Inhibitory Concentration, B.a.
[6] = system: Streptococcus pneumoniae (R6); assay: MIC, spectrum of activity: S.pn; type: cell-based; details: read-out: Minimum Inhibitory Concentration, S. Pn.
[7] = rats; IV 10 mg/kg and oral 100 mg/kg
[8] = system: Streptococcus pyogenes (ATCC 700294); assay: MIC, spectrum of activity: S.py; type: cell-based; details: ATCC700294, read-out: Minimum Inhibitory Concentration, S. Py.
[9] = system: Stenotrophomonas maltophilia (ATCC 13637); assay: MIC, spectrum of activity: S.m.; type: cell-based; details: ATCC13637, read-out: Minimum Inhibitory Concentration, S.m.
[10] = system: Escherichia coli (ATCC 700926); assay: MIC, spectrum of activity: E.c.; type: cell-based; details: ATCC700926, read-out: Minimum Inhibitory Concentration, E.c.
in vitro [11] = details: mouse, microsomes
in vitro [12] = details: mouse, plasma
in vivo = details: male, Sprague-Dawley, rat; for Vd / clearance / half-life: iv, 10 mg/kg; for AUC(0-inf) / Cmax / bioavailability: po, 100 mg/kg
physchem = details: pH 7.4, aqueous buffer
[13] = system: Staphylococcus aureus (ATCC 29213); assay: MIC, spectrum of activity: S.a.; type: cell-based; details: ATCC29213, read-out: Minimum Inhibitory Concentration, S.a
[14] = system: Bacillus subtilis (ATCC 23857); assay: MIC, spectrum of activity: B.s.; type: cell-based; details: ATCC23857, read-out: Minimum Inhibitory Concentration, B.s.
[15] = male, Sprague-Dawley, rat, in vivo; for fe (fraction excreted unchanged in urine): iv, 10 mg/kg; for Cmin,24 h: po, 100 mg/kg
[16] = In vitro cytotoxicity against Vero cells; details: African green monkey, Vero cells (kidney epithelial cells, ATCC CCL-81)
Vero cells = assay: In vitro cytotoxicity against Vero cells
E. coli K12 ∆tolC = type: cell-based; details: E. coli K12 ∆tolC (efflux pump deficient)

Structure (SMILES)	MIC [2] [µg/mL]	MIC [3] [µg/mL]	MIC (M. tuberculosis) [µg/mL]	MIC [4] [µg/mL]	MIC [5] [µg/mL]	MIC [6] [µg/mL]	Toxicity by intravenous and oral dosing [7]	MIC [8] [µg/mL]	MIC [9] [µg/mL]	MIC [10] [µg/mL]	half-life (in vitro [11]) [h]	fraction unbound (in vitro [12])	Vd (in vivo) [L/kg]	clearance (in vivo) [mL/min/kg]	solubility (physchem) [µg/mL]	MIC [13] [µg/mL]	MIC [14] [µg/mL]	IC50 [16] [µg/mL]	Selective Index (Cytox/MIC) (Vero cells)	Minimum Inhibitory Concentration, E.c. ΔtolC (E. coli K12 ∆tolC) [µg/mL]	further results
NCC[C@H](O)C(=O)N[C@@H]1C[C@H](N)[C@@H](O[C@H]2O[C@H](CN)[C@@H](O)[C@H](O)[C@H]2O)[C@H](O)[C@H]1O[C@H]1O[C@H](CO)[C@@H](O)[C@H](N)[C@H]1O [Amikacin]	–	–	–	–	–	–	–	–	–	–	–	–	–	–	–	–	–	–	–	–	MIC [1]: 3.13 to 6.25 µg/mL (≈ 5.34 to 10.7 µM); MIC (M. fortuitum (ATCC 6841)): 0.78 µg/mL (≈ 1.33 µM); MIC (M. kansasii (ATCC 12478)): 6.25 to 12.5 µg/mL (≈ 10.7 to 21.3 µM); MIC (M. avium (ATCC 25291)): 12.5 µg/mL (≈ 21.3 µM)
O=[N+]([O-])c1ccc(C2=NOC(c3ccc(N4CCC(Oc5ccc(OC(F)(F)F)cc5)CC4)nc3)C2)o1 (stereo not drawn) [Compound 9b, 3-(5-Nitrofuran-2-yl)-5-(6-(4-(4-(trifluoromethoxy)phenoxy)piperidin-1-yl)pyridin-3-yl)-4,5-dihydroisoxazole]	100 (≈ 193 µM)	> 200	0.006 (≈ 0.0116 µM)	200 (≈ 386 µM)	50 (≈ 96.4 µM)	200 (≈ 386 µM)	non-toxic	200 (≈ 386 µM)	100 (≈ 193 µM)	> 200	6.91	0.001	1.53	7	1.6 (≈ 3.09 µM)	200 (≈ 386 µM)	> 200	4 (≈ 7.72 µM)	667	>200	half-life (in vivo): 2.48 h; AUC(0-inf) (in vivo): 15100 ng·h/mL; Cmax (in vivo): 2310 ng/mL; bioavailability (in vivo): 8%; fe (fraction excreted unchanged in urine) [15]: 0.01 (0.00) %; Cmin,24 h [15]: 0.11 (0.11) mg/L
O=[N+]([O-])c1ccc(C2=NOC(c3ccc(N4CCC(Oc5ccc(OC(F)(F)F)cc5)CC4)c(F)c3)C2)o1 (stereo not drawn) [Compound 9c, 5-(3-Fluoro-4-(4-(4-(trifluoromethoxy)phenoxy)piperidin-1-yl)phenyl)-3-(5-nitrofuran-2-yl)-4,5-dihydroisoxazole]	> 200	> 200	0.001 (≈ 0.00187 µM)	> 200	12.5 (≈ 23.3 µM)	> 200	Central nervous system toxicity (seizures)	200 (≈ 374 µM)	> 200	> 200	7.04	0.024	1.69	6.83	1.9 (≈ 3.55 µM)	> 200	200 (≈ 374 µM)	21.4 (≈ 40 µM)	21400	>200	half-life (in vivo): 5.6 h; AUC(0-inf) (in vivo): 1610 ng·h/mL; Cmax (in vivo): 150 ng/mL; bioavailability (in vivo): 0.83%; fe (fraction excreted unchanged in urine) [15]: 0.02 (0.00) %; Cmin,24 h [15]: 0.02 (0.02) mg/L
O=[N+]([O-])c1ccc(C2=NOC(c3ccc(N4CCC(Oc5ccc(F)cc5)CC4)cc3)C2)o1 (stereo not drawn) [Compound 9d, 5-(4-(4-(4-Fluorophenoxy)piperidin-1-yl)phenyl)-3-(5-nitrofuran-2-yl)-4,5-dihydroisoxazole]	50 (≈ 111 µM)	> 200	0.012 (≈ 0.0266 µM)	100 (≈ 222 µM)	> 200	> 200	–	> 200	6.3 (≈ 14 µM)	> 200	1.43	0.009	–	–	0.7 (≈ 1.55 µM)	6.3 (≈ 14 µM)	100 (≈ 222 µM)	14.7 (≈ 32.6 µM)	1225	>200	–
O=[N+]([O-])c1ccc(C2=NOC(c3ccc(N4CCC(Oc5ccc(F)cc5)CC4)nc3)C2)o1 (stereo not drawn) [Compound 9e, 5-(6-(4-(4-Fluorophenoxy)piperidin-1-yl)pyridin-3-yl)-3-(5-nitrofuran-2-yl)-4,5-dihydroisoxazole]	50 (≈ 111 µM)	50 (≈ 111 µM)	0.002 (≈ 0.00442 µM)	50 (≈ 111 µM)	> 200	> 200	–	> 200	6.3 (≈ 13.9 µM)	> 200	1.93	0.002	–	–	2.2 (≈ 4.86 µM)	> 200	50 (≈ 111 µM)	7.5 (≈ 16.6 µM)	3750	>200	–
